Source: PubChem BioAssay AID179 (DTP/NCI, 2004)
pEC50, pIC50: −log10 of the molar value. Calls of active or inactive are those of the source.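 The calls were made as follows: active = compounds giving half or more protection of infected cells from virus-caused growth loss, again on retest; inactive = the rest.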 Where a SMILES comes first, the peptide text is derived from it.

Test system: CEM cells HIV-1 protection, formazan growth assay
Assay: NCI AIDS Antiviral Assay
Conditions: for pIC50: measured here: growth of uninfected CEM cells
In short: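 Protection of CEM cells against HIV-1 was scored from cell growth (soluble formazan) across five concentrations, with parallel uninfected cells. Lack of protection may reflect toxicity.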

Structure (SMILES) | pEC50 | pIC50 | outcome
CC(Oc1ccccc1)C(=O)NN (centres undefined) | < 3.70 | < 3.70 | 
COc1ccc(NC(=O)c2oc3cc(O)ccc3c(=O)c2C)c([N+](=O)[O-])c1 | < 3.17 | 3.61 | 
O=C1/C(=C/c2cccc(Cl)c2)CCc2ccccc21 | < 5.00 | < 5.00 | 
O=C(c1ccc(Cl)cc1)c1cnc2nc(-c3ccccc3)c(-c3ccccc3)nn12 | < 5.75 | < 5.75 | 
CCOC(=O)/C(=C\c1cc(OC)ccc1OC)P(=O)(OCC)OCC | < 3.17 | 5.01 | 
Cc1ccc(NC(=O)Nc2sc(=S)c3c(c2C#N)CCCC3)c(C)c1 | < 4.23 | < 4.23 | 
COc1cc(-c2cc(O)c(-c3ccc4ccccc4n3)c(=O)[nH]2)cc(OC)c1OC | < 6.03 | < 6.03 | 
COc1ccccc1NC(=O)/C(=C/c1ccccc1)C(C)=O | < 4.61 | 4.73 | 
Cc1cccc2c1NC(c1c(C)[nH]c3ccccc13)C2 (centres undefined) |  |  | inactive
Cc1cc2c(cn1)C(=O)OCC2 |  |  | inactive
COC(=O)C1=C(C(=O)OC)P2(C)(C)SC(=S)N2C1(c1ccccc1)c1ccccc1 | < 3.70 | < 3.70 | 
Nc1ccc2c(c1)Oc1ccc(N)cc1O2 | < 3.70 | < 3.70 | 
CCN(CC)c1c(C)nnc2c3c(-c4ccccc4)c(-c4ccccc4)nnc3nn12 | < 3.70 | < 3.70 | 
COC(=O)C12CCC(C(=O)OC)(CC1)n1c(=O)n(-c3ccccc3)c(=O)n12 | < 3.70 | < 3.70 | 
CCC(=N\N=C(N)N)/C(CC)=N/N=C(N)N | < 3.25 | < 3.25 | 
O=c1n(-c2ccccc2)c(=O)n2n1C1C3C4C5C3C2C5(F)C41 (centres undefined) | < 3.70 | < 3.70 | 
CCOP(=O)(OCC)C(N)c1ccc(OC)cc1 (centres undefined) | < 3.09 | < 3.09 | 
O=c1c(OC2OC(CO)C(O)C(O)C2OC2OCC(O)(CO)C2O)c(-c2ccc(O)cc2)oc2cc(O)cc(O)c12 (centres undefined) | < 4.37 | < 4.37 | 
CC(=O)N/N=C1/CC[C@@]2(C)C(=CC[C@H]3C4CCC(C(C)CCCC(C)C)[C@@]4(C)CCC32)C1(C)C (some centres undefined) | < 3.70 | 4.21 | 
COc1cc(/C=C/C(=O)CC(=O)/C=C/c2cc(OC)c(O)c(OC)c2)cc(OC)c1O | < 3.70 | 4.90 | 
CS(=O)(=O)c1cc(=O)[nH]c(=O)[nH]1 | 4.11 | 3.99 | 
O=C(c1ccccc1)N(CCCCNC(=O)C(F)(F)F)CCCNC(=O)C(F)(F)F | < 3.70 | < 3.70 | 
CCOC(=O)CCC(NC(=O)c1ccc(Oc2nc3ccccc3nc2C(=O)OCC)cc1)C(=O)OCC (centres undefined) | < 3.70 | < 3.70 | 

Structure (SMILES) | pEC50 | pIC50 | outcome
CN(C)CCN1C(=O)c2cccc3cc([N+](=O)[O-])cc(c23)C1=O | < 3.70 | 7.04 | 
Cc1cc(NS(=O)(=O)c2ccc(Nc3c4ccccc4nc4c(C(=O)N5CCN(CCO)CC5)ccc(Cl)c34)cc2)no1 | < 4.32 | < 4.32 | 
Cc1cc(C)cc(Nc2cc(=O)[nH]c(=O)[nH]2)c1 | < 3.70 | < 3.70 | 
N#C/C(=C\NC(N)=S)c1nc2ccccc2s1 |  |  | inactive
CCCCCCc1nn2c(-c3ccc(C)cc3)nnc2s1 | < 3.70 | < 3.70 | 
Cc1cn(C2C/C(=C\C#N)C(CO[Si](C)(C)C(C)(C)C)O2)c(=O)[nH]c1=O (centres undefined) | < 3.70 | 3.74 | 
O=C1CCC2(c3ccccc3)Nc3ccccc3N12 (centres undefined) | < 3.70 | 3.90 | 
Cc1cc(C)c2ccc(N3CCNCC3)nc2n1 | < 3.76 | 4.15 | 
O=C1CN2C(Cl)(Cl)C2(c2ccccc2)c2cc(Cl)ccc2N1CC(F)(F)F (centres undefined) | < 3.70 | 4.53 | 
COc1ccc2c(c1)CCc1[nH]c3ccccc3c1CCCC2 | < 4.21 | 4.24 | 
Cc1cc2c(cc1Cl)Sc1nccn1S2(=O)=O | 4.39 | 4.10 | 
CCC1(OC(=O)CN2CCN(CCO)CC2)C(=O)OCc2c1cc1n(c2=O)Cc2cc3ccccc3nc2-1 (centres undefined) | < 5.00 | 7.04 | 
COC(=O)c1sc(=O)n(-c2ccccc2)c1SCc1ccccc1 | < 4.42 | < 4.42 | 
CC1CCC2(CC1)NC1=C(CC(C)CC1)C1=C2CC(C)CC1 (centres undefined) | < 3.70 | 4.45 | 
CC(=O)NNc1nc(C)c(C(=O)/C=C/C=C/c2ccccc2)s1 | < 4.66 | < 4.66 | 
C1CCC(CC[N+]23CC[N+](CCC4CCCC4)(CC2)C3)C1 | < 3.16 | 3.46 | 
OC1(c2ccccc2)CSC2=Nc3ccccc3C3CCN1N23 (centres undefined) | < 3.70 | 4.44 | 
CCCCCCC(/C=N/O)C(C)(O)CCC (centres undefined) | < 3.95 | < 3.95 | 
CC(C)(CC1=CC(=O)C=CC1=O)Cc1ccccc1 | < 3.70 | 4.43 | 
Cc1cc(S(=O)(=O)Nc2nnc3c4scc(C)c4ncn23)c(S)cc1Cl | 4.34 | 4.30 | 
CN(C)CCSc1cc(-c2ccccc2)c2ccccc2n1 | < 3.70 | 5.20 | 
CC(=N/NC(=S)N1CCCCC1)/C(C)=N\NC(=S)N1CCCCC1 | < 3.70 | 5.65 | 
CCCCC1=NNC(=O)C1 | < 3.70 | < 3.70 | 

Structure (SMILES) | pEC50 | pIC50 | outcome
CCCCNCC(=O)O[C@]1(CC)C(=O)OCc2c1cc1n(c2=O)Cc2cc3ccccc3nc2-1 | < 5.00 | 7.11 | 
CCCCCCCCCCCCCCCCCCCCCCCCCCCCCC=C(c1cc(Cl)c(O)c(C(=O)O)c1)c1cc(Cl)c(O)c(C(=O)O)c1 | 4.91 | 3.65 | 
CCc1cccc(C)c1NC(=O)CC(=O)NNC(N)=S | < 3.49 | < 3.49 | 
Cc1ccc(S(=O)(=O)N2/C(=C/c3ccccc3)C(=O)c3ccccc3-c3ccccc32)cc1 | < 4.94 | < 4.94 | 
OCc1ccccc1C1CSCSC1 | < 3.66 | < 3.66 | 
Cc1nn(C(=O)c2ccc(Cl)cc2)c2c1C(c1ccccc1[N+](=O)[O-])SC(N)=N2 (centres undefined) | < 3.70 | 3.98 | 
Nc1nc(NCCOCP(=O)(O)O)c(N)c(=O)[nH]1 | < 3.70 | < 3.70 | 
COC(=O)C1(CC(=O)OCc2ccccc2)NCCc2c1[nH]c1ccccc21 (centres undefined) | < 5.48 | < 5.48 | 
Nc1nc2c(c(=O)[nH]1)N=C(COP(=O)(O)OP(=O)(O)O)CN2 | < 3.70 | 3.84 | 
O=C(CS)Nc1cccc(O)c1 | < 3.70 | < 3.70 | 
COC(=O)c1nc(NN)[nH]c(=O)c1CCCCCc1c(C(=O)OC)[nH]c(NN)cc1=O | < 5.20 | < 5.20 | 
CN(C)c1ccc(C=C2C=CC=C2)cc1 | < 4.72 | < 4.72 | 
CC(C)(C)C(=O)Cc1cc2c(cc1C(=O)O)S(=O)(=O)NC(C(C)(C)C)=C2 | < 3.32 | < 3.32 | 
Nc1ncc(C2[C@H](CNC(=O)c3cc(Br)c[nH]3)C(CNC(=O)c3cc(Br)c[nH]3)[C@@H]2c2cnc(N)[nH]2)[nH]1 (some centres undefined) |  |  | active
CN1CCCN(C)CCCN(C)CCCN(C)CCC1 | < 4.00 | < 4.00 | 
S=C1NC=CC(S)N1 (centres undefined) | < 3.70 | < 3.70 | 
Cc1ccc(Cl)c(-c2nc3cc(Cl)c(Cl)cc3[nH]2)c1 | < 4.22 | < 4.22 | 
CC(=O)N=C1N(/C=C2\C(=O)Oc3ccccc3C2=O)C(=O)/C(=C/c2cccc([N+](=O)[O-])c2)N1C | < 4.00 | 4.01 | 
c1ccc(C2(c3ccccc3)S/C(=C3/SC(c4ccccc4)(c4ccccc4)c4ccccc43)c3ccccc32)cc1 |  |  | inactive
CC(NC(=O)C(CO)NC(=O)C(C)NC(=O)C(C)NC(=O)C(CC(N)=O)NC(=O)CN)C(N)=O (centres undefined) (H-GNAASA-NH2; configuration not given here) |  |  | inactive
O=C(O)CSCCCCSCC(=O)O | < 2.98 | < 2.98 | 
O=C1c2ccccc2C(=O)N1C/C=N/NS(=O)(=O)c1ccc2ccccc2c1 | < 3.62 | < 3.62 | 
C=CCOC(=O)Cn1cnc2c(N)ncnc21 | < 3.70 | < 3.70 | 

Structure (SMILES) | pEC50 | pIC50 | outcome
O=C1c2ccccc2-c2nccc3ccnc1c23 |  |  | inactive
C#CCCOC1(OC)N=NC(C)(C)O1 (centres undefined) | < 3.70 | < 3.70 | 
NS(=O)(=O)c1ccc(NNc2c3ccccc3nc3ccccc23)cc1 | < 3.70 | 4.97 | 
COC(=O)C(=O)C(C(=O)C(N)=O)c1nc2ccc(C(=O)c3ccccc3)cc2[nH]c1=O (centres undefined) | < 4.07 | < 4.07 | 
O=C1CCCC2=C1CC1=C(CCCC1=O)N2c1ccc([N+](=O)[O-])cc1 | < 3.70 | < 3.70 | 
COc1cc(C[C@H]2COC(=O)[C@]2(O)Cc2ccc(O)c(OC)c2)ccc1O | 5.87 | 5.32 | 
S=C1NC(c2ccco2)N2C(=S)NC(c3ccco3)N12 (centres undefined) |  | < 3.70 | inactive
N#Cc1ccc(SSc2ccc(C#N)cc2)cc1 | < 3.70 | 5.02 | 
CSc1c(C(N)=S)c(N)nn1-c1ccccc1 | < 3.70 | 3.81 | 
NC(N)=N/N=C/c1oc(-c2ccc(S(=O)(=O)O)o2)c(-c2ccc(S(=O)(=O)O)o2)c1[N+](=O)[O-] | < 3.29 | < 3.29 | 
OCC(Cn1cncn1)(c1ccc(F)cc1F)n1cncn1 (centres undefined) | < 3.70 | < 3.70 | 
CN1CCC(O)(OC(=O)C(c2ccccc2)C2(O)CCCC2)CC1 (centres undefined) | < 3.70 | < 3.70 | 
N#CC12Cc3cc4c(cc3-c3cccc(c31)CCN2C(=O)c1ccccc1)OCO4 (centres undefined) |  |  | inactive
NC(Cc1ccc(OCc2ccccc2)cc1)C(=O)NC(Cc1ccccc1)C(=O)Oc1c(Cl)c(Cl)c(Cl)c(Cl)c1Cl (centres undefined) | < 3.70 | 4.54 | 
CC12NC(=C(C#N)C#N)C(C#N)=C3NC(N)=C(C#N)C(=C31)Oc1ccccc12 (centres undefined) | < 3.70 | 5.23 | 
Cc1nc2ccccc2c(=O)n1Nc1ccc(C(=O)O)cc1 |  |  | inactive
Cc1ccc(N=C2SC(=NN(C)C)SC2=Nc2ccc(C)cc2)cc1 | < 3.70 | < 3.70 | 
COc1ccc(N=c2ssc(SC)c2-c2ccccc2)cc1 | < 3.70 | 4.33 | 
COc1ccc2nc3c(nc2c1)C(C)(C)C=C3c1ccc(Br)cc1 | < 4.00 | < 4.00 | 
O=C1C(=O)N(c2ccc(Cl)cc2Cl)C(=O)C(=O)C1c1nc2ccccc2o1 | < 4.07 | < 4.07 | 
